A short description of series [1]: The drug is tested on Z-026 corresponding to metagenome with ENA study accession number: PRJEB37062 and ENA sample accession number: ERS12561825 for biotransformation under anaerobic condition. The drug concentrations were measured over 9 timepoints collected between 0 and 24 hours of incubation by liquid-chromatography-coupled mass spectrometry (LC–MS). The conditions noted are these: 2 µM.

A short description of series [2]: The drug is tested on Z-014 corresponding to rat gut metagenome with ENA study accession number: PRJEB37062 and ENA sample accession number: ERS12561814 for biotransformation under anaerobic condition. The drug concentrations were measured over 9 timepoints collected between 0 and 24 hours of incubation by liquid-chromatography-coupled mass spectrometry (LC–MS). Particulars: 2 µM.

A short description of series [3]: The drug is tested on Z-007 corresponding to rat gut metagenome with ENA study accession number: PRJEB37062 and ENA sample accession number: ERS12561807 for biotransformation under anaerobic condition. The drug concentrations were measured over 9 timepoints collected between 0 and 24 hours of incubation by liquid-chromatography-coupled mass spectrometry (LC–MS). Particulars: 2 µM.

Series [4] in a line: The drug is tested on Z-001 corresponding to mouse gut metagenome with ENA study accession number: PRJEB37062 and ENA sample accession number: ERS12561801 for biotransformation under anaerobic condition. The drug concentrations were measured over 9 timepoints collected between 0 and 24 hours of incubation by liquid-chromatography-coupled mass spectrometry (LC–MS). The conditions noted are these: 2 µM.

Series [5] can be described thus: The drug is tested on WLS-370 corresponding to human gut metagenome with ENA study accession number: PRJEB37062 and ENA sample accession number: ERS12561793 for biotransformation under anaerobic condition. The drug concentrations were measured over 9 timepoints collected between 0 and 24 hours of incubation by liquid-chromatography-coupled mass spectrometry (LC–MS). Particulars: 2 µM.

The nature of series [6]: The drug is tested on WLS-086 corresponding to human gut metagenome with ENA study accession number: PRJEB37062 and ENA sample accession number: ERS12561752 for biotransformation under anaerobic condition. The drug concentrations were measured over 9 timepoints collected between 0 and 24 hours of incubation by liquid-chromatography-coupled mass spectrometry (LC–MS). Particulars: 2 µM.

The nature of series [7]: The drug is tested on WLS-077 corresponding to human gut metagenome with ENA study accession number: PRJEB37062 and ENA sample accession number: ERS12561750 for biotransformation under anaerobic condition. The drug concentrations were measured over 9 timepoints collected between 0 and 24 hours of incubation by liquid-chromatography-coupled mass spectrometry (LC–MS). Particulars: 2 µM.

The nature of series [8]: The drug is tested on WLS-052 corresponding to human gut metagenome with ENA study accession number: PRJEB37062 and ENA sample accession number: ERS12561747 for biotransformation under anaerobic condition. The drug concentrations were measured over 9 timepoints collected between 0 and 24 hours of incubation by liquid-chromatography-coupled mass spectrometry (LC–MS). The conditions noted are these: 2 µM.

Series [9] is described as follows: The drug is tested on WLS-010 corresponding to human gut metagenome with ENA study accession number: PRJEB37062 and ENA sample accession number: ERS12561743 for biotransformation under anaerobic condition. The drug concentrations were measured over 9 timepoints collected between 0 and 24 hours of incubation by liquid-chromatography-coupled mass spectrometry (LC–MS). The conditions noted are these: 2 µM.

For series [10] the following is noted: human gut metagenome, 24 h, 2 µM.
For series [11] the following is noted: human gut metagenome, 24 h, 2 µM. The source holds these as a separate data set.
For series [12] the following is noted: human gut metagenome, 24 h, 2 µM. This is another data set of the same source.
The conditions of series [13]: human gut metagenome, 24 h, 2 µM. This is another data set of the same source.
The conditions of series [14]: human gut metagenome, 24 h, 2 µM. This is another data set of the same source.
For series [15] the following is noted: human gut metagenome, 24 h, 2 µM. This is another data set of the same source.
The conditions of series [16]: human gut metagenome, 24 h, 2 µM. The source holds these as a separate data set.
The conditions of series [17]: human gut metagenome, 24 h, 2 µM. This is another data set of the same source.
The conditions of series [18]: human gut metagenome, 24 h, 2 µM. This is another data set of the same source.
The conditions of series [19]: human gut metagenome, 24 h, 2 µM. The source holds these as a separate data set.
For series [20] the following is noted: human gut metagenome, 24 h, 2 µM. This is another data set of the same source.

The structures appear in SMILES notation.
Also: call rule not given here.

Take `CC1Cc2ccccc2N1NC(=O)c1ccc(Cl)c(S(N)(=O)=O)c1` (stereo not given) [INDAPAMIDE]: the “Bacterial Biotransformation” value in series [1], in series [2], in series [3], in [4], in series [5] and in series [6] was “Compound NOT metabolized” throughout. Further, the “Bacterial Biotransformation” value in [7], in series [8], in series [9], in series [10], in [11] and in [12] was “Compound NOT metabolized” throughout. For the same compound, the “Bacterial Biotransformation” value in series [13], in [14], in series [15], in [16], in series [17] and in series [18] was “Compound NOT metabolized” each time. Moreover, the “Bacterial Biotransformation” value in series [19] and in series [20] was “Compound NOT metabolized” in each case.

`COc1ccc2c(c1)c(CC(=O)O)c(C)n2C(=O)c1ccc(Cl)cc1` [INDOMETHACIN]: the “Bacterial Biotransformation” value in [1] is listed as “Compound NOT metabolized”; in series [2], “Compound NOT metabolized”; in series [3] it was “Compound NOT metabolized”; in [4], “Compound NOT metabolized”; in series [5], “Compound metabolized”; in series [6] it was “Compound metabolized”. Further, the “Bacterial Biotransformation” value in series [7], in [8], in [9], in series [10], in series [11] and in series [12] was “Compound metabolized” each time. Moreover, the “Bacterial Biotransformation” value in series [13], in [14], in series [15], in series [16], in series [17] and in series [18] was “Compound metabolized” each time. Further, the “Bacterial Biotransformation” value is on record as “Compound NOT metabolized” in series [19] and “Compound metabolized” in series [20].

On to `CC(CCc1ccccc1)NCC(O)c1ccc(O)c(C(N)=O)c1` (stereo not given) [LABETALOL], for which the “Bacterial Biotransformation” value in [1] is listed as “Compound NOT metabolized”; in series [2], “Compound NOT metabolized”; in series [3], “Compound NOT metabolized”; in series [4], “Compound NOT metabolized”; in series [5], “Compound NOT metabolized”; in [6], “Compound metabolized”. Besides, the “Bacterial Biotransformation” value in series [7], in [8], in [9], in series [10], in series [11] and in [12] was “Compound NOT metabolized” each time. In addition, the “Bacterial Biotransformation” value in series [13] was “Compound NOT metabolized”; in series [14] it was “Compound NOT metabolized”; in series [15] it was “Compound NOT metabolized”; in series [16], “Compound metabolized”; in [17], “Compound NOT metabolized”; in series [18], “Compound NOT metabolized”. Besides, the “Bacterial Biotransformation” value in [19] and in series [20] was “Compound NOT metabolized” throughout.

For the compound `Nc1nnc(-c2cccc(Cl)c2Cl)c(N)n1` [LAMOTRIGINE], the “Bacterial Biotransformation” value in series [1] is recorded as “Compound NOT metabolized”; in series [2], “Compound NOT metabolized”; in series [3], “Compound NOT metabolized”; in series [4], “Compound NOT metabolized”; in series [5] it was “Compound NOT metabolized”; in series [6] it was “Compound metabolized”. The “Bacterial Biotransformation” value in [7], in [8], in series [9], in series [10], in [11] and in series [12] was “Compound NOT metabolized” in each case. Besides, the “Bacterial Biotransformation” value in [13] is recorded as “Compound metabolized”; in [14], “Compound metabolized”; in [15], “Compound NOT metabolized”; in series [16], “Compound metabolized”; in series [17] it was “Compound NOT metabolized”; in series [18], “Compound metabolized”. For the same compound, the “Bacterial Biotransformation” value in [19] and in series [20] was “Compound NOT metabolized” each time.

Regarding `OC(c1cc(C(F)(F)F)nc2c(C(F)(F)F)cccc12)C1CCCCN1` (stereo not given) [MEFLOQUINE], the “Bacterial Biotransformation” value in series [1] was “Compound metabolized”; in [2], “Compound NOT metabolized”; in series [3] it was “Compound NOT metabolized”; in [4] it was “Compound NOT metabolized”; in series [5], “Compound metabolized”; in series [6], “Compound metabolized”. The “Bacterial Biotransformation” value is “Compound metabolized” in series [7]; “Compound metabolized” in series [8]; “Compound metabolized” in series [9]; “Compound metabolized” in series [10]; “Compound NOT metabolized” in series [11]; “Compound NOT metabolized” in [12]. Moreover, the “Bacterial Biotransformation” value in series [13], in [14], in [15], in [16], in series [17] and in series [18] was “Compound metabolized” each time. Besides, the “Bacterial Biotransformation” value in [19] and in [20] was “Compound NOT metabolized” in each case.

Source of the values: ChEMBL document CHEMBL5724914, “Linking interpersonal differences in gut microbiota composition and drug biotransformation activity” (2024).
